According to patent US8359784B2, “Method for controlling subterranean termite activity by forming a barrier” (FMC Corporation, priority 2009, dated 2013):

System: Formosean subterranean termites (Coptotermes formosanus)
Test: Subterranean termite activity on treated wooden frame structures (sheds), field test
Format: in vivo
Description: Twelve wooden frame structures (4 ft by 3 ft by 4 ft high, four to receive treatment with a bifenthrin solution, four to receive a commercial borate standard treatment and four to be used as untreated controls) were built on one inch thick concrete pads in an area of high subterranean termite pressure, Formosean subterranean termites (Coptotermes formosanus). The structures were constructed using pressure treated sill plates, untreated southern yellow pine studs and untreated plywood walls. A two inch diameter polyethylene pipe was installed in a hole in the center of each concrete pad to simulate a plumbing drain installation, leaving a small gap between the pad and the pipe. A piece of wood was inserted in the gap to encourage local termite pressure. […] Termite activity surrounding each structure was monitored by installing commercially available in-ground termite monitors (FIRSTLINE® Defender kits available from FMC Corporation) about one foot from each outside face, a total of four monitors per structure. […] Termite activity was measured in each structure by visually inspecting the inside and outside walls and the area around the polyethylene pipe for termite damage and for construction of shelter tubes at for up to 18 months after treatment. […]

For Cc1c(COC(=O)[C@@H]2[C@H](/C=C(\Cl)C(F)(F)F)C2(C)C)cccc1-c1ccccc1 (racemic) [Bifenthrin, 2-methylbiphenyl-3-ylmethyl (Z)-(1RS)-cis-3-(2-chloro-3,3,3-trifluoroprop-1-enyl)-2,2-dimethyl cyclopropanecarboxylate], the “Termite damage or damage to the wood piece inserted in the simulated plumbing drain hole” value (up to 18 months after treatment) was “None of the bifenthrin treated structures had any indication of termite damage or damage to the wood piece” and the “Damage to structures due to termite activity” value (visual inspection up to 18 months after treatment) was “very little or no damage due to termite activity”.
